Several values for one entry are separate records, joined by “and”; a condition that tells them apart may be missing. Equal values may be shown once. Read-outs that look alike come from different tables or passages of the source.
Test system: eggs
[1] = 4 day delta: Day 4 DHP+ versus Day 4 DHP−
[2] = 5 day delta: Day 5 DHP+ versus Day 5 DHP−
[3] = 6 day delta: Day 6 DHP+ versus Day 6 DHP−
[4] = Day 4 DHP+, summary over replicates stored 4 days
[5] = Day 5 DHP+, summary over replicates stored 5 days
[6] = Day 6 DHP+, summary over replicates stored 6 days
[7] = Day 7 DHP+, summary over replicates stored 7 days
[8] = Day 7 Delta: Day 7 DHP+ versus Day 7 DHP−
[9] = Delta: Avg. Trtd versus Avg. Untrd, all storage times
[10] = an additional day (five days) of DHP gas treatment, vs untreated
[11] = eggs treated four days, vs untreated
[12] = seven day storage, vs untreated
[13] = with DHP gas, Mean / Avg. Trtd of 22 replicates, storage 4 to 7 days
[14] = with DHP gas, egg storage 4 days, single replicates of 90 eggs
[15] = with DHP gas, egg storage 5 days, single replicates of 90 eggs
[16] = with DHP gas, egg storage 6 days, single replicates of 90 eggs
[17] = with DHP gas, egg storage 7 days, single replicates of 90 eggs
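Note: paired egg replicates incubated to hatching under standard commercial conditions, then each category scored at hatch as percent of eggs in the replicate.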

Experimental: A total of 22 replicates of 90 eggs each of age matched, flock matched eggs are stored prior to incubation for 4 to 7 days in an on-site egg room at about 20° C. […] The paired replicates are then incubated to hatching under standard commercial conditions. At hatching, the following parameters are assessed and recorded: Total Hatchability (%), Fertile Hatchability (%), % Infertile, Early dead (%), Mid dead (%), Late dead (%), Cracked (%), Contaminated (%), Live pip (%), Dead pip (%), Cull dead chick (%), Chick Weight (g), Chick A (%), and Chick B (%).

Structure (SMILES): OO [DHP, dry hydrogen peroxide]
- % Infertile, delta [1]: 0.64%
- Chick A, delta [1]: 0.14%
- Chick B, delta [1]: −0.14%
- Chick Weight, delta [1]: 0.89 g
- Cont, delta [1]: 0.00%
- Crack, delta [1]: 0.32%
- Cull dead cks, delta [1]: 0.00%
- Dead pip, delta [1]: −0.16%
- Early dead, delta [1]: −0.33%
- Fertile Hatchability, delta [1]: 0.12%
- Late dead, delta [1]: −0.64%
- Live pip, delta [1]: 0.63%
- Mid dead, delta [1]: 0.16%
- Total Hatchability, delta [1]: −0.64%
- % Infertile, delta [2]: 1.84%
- Chick A, delta [2]: 1.73%
- Chick B, delta [2]: −1.73%
- Chick Weight, delta [2]: 0.85 g
- Cont, delta [2]: 0.00%
- Crack, delta [2]: −0.19%
- Cull dead cks, delta [2]: 0.00%
- Dead pip, delta [2]: −0.37%
- Early dead, delta [2]: −1.70%
- Fertile Hatchability, delta [2]: 3.20%
- Late dead, delta [2]: −2.05%
- Live pip, delta [2]: 0.37%
- Mid dead, delta [2]: 0.74%
- Total Hatchability, delta [2]: 1.36%
- % Infertile, delta [3]: 0.94%
- Chick A, delta [3]: −0.57%
- Chick B, delta [3]: 0.57%
- Chick Weight, delta [3]: 0.49 g
- Cont, delta [3]: 0.00%
- Crack, delta [3]: 0.00%
- Cull dead cks, delta [3]: −0.48%
- Dead pip, delta [3]: −0.48%
- Early dead, delta [3]: −2.77%
- Fertile Hatchability, delta [3]: 4.67%
- Late dead, delta [3]: −0.82%
- Live pip, delta [3]: −0.16%
- Mid dead, delta [3]: 0.48%
- Total Hatchability, delta [3]: 2.96%
- % Infertile [4]: 2.39%
- Chick A [4]: 96.98%
- Chick B [4]: 3.02%
- Chick Weight [4]: 44.69 g
- Cont [4]: 0.00%
- Crack [4]: 0.48%
- Cull dead cks [4]: 0.00%
- Dead pip [4]: 0.16%
- Early dead [4]: 4.12%
- Fertile Hatchability [4]: 92.21%
- Late dead [4]: 1.74%
- Live pip [4]: 0.95%
- Mid dead [4]: 0.16%
- Total Hatchability [4]: 89.99%
- % Infertile [5]: 4.44%
- Chick A [5]: 98.37%
- Chick B [5]: 1.64%
- Chick Weight [5]: 44.29 g
- Cont [5]: 0.00%
- Crack [5]: 0.00%
- Cull dead cks [5]: 0.00%
- Dead pip [5]: 0.00%
- Early dead [5]: 1.85%
- Fertile Hatchability [5]: 95.33%
- Late dead [5]: 1.11%
- Live pip [5]: 0.56%
- Mid dead [5]: 0.93%
- Total Hatchability [5]: 91.11%
- % Infertile [6]: 2.22%
- Chick A [6]: 96.88%
- Chick B [6]: 3.12%
- Chick Weight [6]: 44.30 g
- Cont [6]: 0.00%
- Crack [6]: 0.00%
- Cull dead cks [6]: 0.00%
- Dead pip [6]: 0.00%
- Early dead [6]: 2.70%
- Fertile Hatchability [6]: 94.14%
- Late dead [6]: 2.06%
- Live pip [6]: 0.16%
- Mid dead [6]: 0.79%
- Total Hatchability [6]: 92.06%
- % Infertile [7]: 0.56%
- Chick A [7]: 97.06%
- Chick B [7]: 2.94%
- Chick Weight [7]: 44.68 g
- Cont [7]: 0.00%
- Crack [7]: 0.00%
- Cull dead cks [7]: 0.56%
- Dead pip [7]: 0.00%
- Early dead [7]: 1.11%
- Fertile Hatchability [7]: 94.98%
- Late dead [7]: 1.67%
- Live pip [7]: 1.11%
- Mid dead [7]: 0.56%
- Total Hatchability [7]: 94.44%
- % Infertile, delta [8]: 0.00%
- Chick A, delta [8]: −1.17%
- Chick B, delta [8]: 1.17%
- Chick Weight, delta [8]: 1.10 g
- Cont, delta [8]: −0.56%
- Crack, delta [8]: 0.00%
- Cull dead cks, delta [8]: 0.56%
- Dead pip, delta [8]: 0.00%
- Early dead, delta [8]: −2.78%
- Fertile Hatchability, delta [8]: 0.56%
- Late dead, delta [8]: 0.55%
- Live pip, delta [8]: 1.11%
- Mid dead, delta [8]: 0.56%
- Total Hatchability, delta [8]: 0.56%
- % Infertile, delta [9]: 1.00%
- Chick A, delta [9]: 0.23%
- Chick B, delta [9]: −0.23%
- Chick Weight, delta [9]: 0.77 g
- Cont, delta [9]: −0.05%
- Crack, delta [9]: 0.05%
- Cull dead cks, delta [9]: −0.10%
- Dead pip, delta [9]: −0.30%
- Early dead, delta [9]: −1.70%
- Fertile Hatchability, delta [9]: 2.45%
- Late dead, delta [9]: −0.97%
- Live pip, delta [9]: 0.35%
- Mid dead, delta [9]: 0.45%
- Total Hatchability, delta [9]: 1.16%
- increase in fertile hatchability [10]: 3.2%
- increase in total hatchability [10]: 1.3%
- increased weight [10]: 0.85 grams
- DHP gas treated eggs observed to be contaminated (at day 7): none
- decrease in number of early deaths (death during incubation, vs untreated): about 1.7%
- change in fertile hatchability [11]: 0.12%
- change in total hatchability [11]: −0.64%
- increased weight [11]: 0.89 g
- increase of fertile hatchability [12]: 0.56%
- increase of total hatchability [12]: 0.56%
- increased weight [12]: 1.10 grams
- increase of fertile hatchability (six days, vs untreated): 4.67%
- increase of total hatchability (six days, vs untreated): 2.96%
- increased weight (six days, vs untreated): 0.49 grams
- mid cycle deaths (vs untreated): decreased
- number of live pip eggs (vs untreated): increases
- improvement in number of A grade chicks (vs untreated eggs): 0.23%
- increase of average chick weight (vs untreated eggs, on-site storage 4 to 7 days at about 20° C.): 0.77 grams
- increase of average chick weight (vs untreated eggs, on-site storage 4 to 7 days, listed as DHP gas): 1.7% and 1.8%
- % Infertile [13]: 2.73%
- Chick A [13]: 97.34%
- Chick B [13]: 2.66%
- Chick Weight [13]: 44.46 g
- Cont [13]: 0.00%
- Crack [13]: 0.15%
- Cull dead cks [13]: 0.05%
- Dead pip [13]: 0.05%
- Early dead [13]: 2.78%
- Fertile Hatchability [13]: 93.93%
- Late dead [13]: 1.67%
- Live pip [13]: 0.61%
- Mid dead [13]: 0.61%
- Total Hatchability [13]: 91.36%
- Cont [14]: 0.00%
- Crack [14]: 0.00% (5×) and 1.11% and 2.22%
- Cull dead [14]: 0.00%
- Dead pip [14]: 0.00% (6×) and 1.11%
- Live pip [14]: 1.11% (2×) and 0.00% (4×) and 4.44%
- Mid dead [14]: 0.00% (6×) and 1.11%
- Cont [15]: 0.00%
- Crack [15]: 0.00%
- Cull dead [15]: 0.00%
- Dead pip [15]: 0.00%
- Early dead [15]: 2.22% (2×) and 1.11% (3×) and 3.33%
- Late dead [15]: 0.00% (3×) and 2.22% (3×)
- Live pip [15]: 0.00% (4×) and 1.11% and 2.22%
- Mid dead [15]: 0.00% (2×) and 1.11% (3×) and 2.22%
- Cont [16]: 0.00%
- Crack [16]: 0.00%
- Cull dead [16]: 0.00%
- Dead pip [16]: 0.00%
- Early dead [16]: 2.22% (5×) and 3.33% and 4.44%
- Live pip [16]: 0.00% (6×) and 1.11%
- Mid dead [16]: 1.11% (3×) and 0.00% (3×) and 2.22%
- % Infer [17]: 1.11% and 0.00%
- Chick A [17]: 96.47% and 97.65%
- Chick B [17]: 3.53% and 2.35%
- Chick Weight [17]: 44.94 g and 44.41 g
- Cont [17]: 0.00%
- Crack [17]: 0.00%
- Cull dead [17]: 1.11% and 0.00%
- Dead pip [17]: 0.00%
- Early dead [17]: 1.11%
- Fertile Hatchblty [17]: 95.51% and 94.44%
- Late dead [17]: 2.22% and 1.11%
- Live pip [17]: 0.00% and 2.22%
- Mid dead [17]: 0.00% and 1.11%
- Total Hatchblty [17]: 94.44%
